From patent US11638712B2, “Bis(acetamidophenyl) guanidinophenylethylphosphonates for use in the prevention and/or treatment of PAR-related diseases” (Universiteit Antwerpen, priority 2016, dated 2023)

Assays:
matriptase = target: T1, matriptase (Homo sapiens, UniProt Q9Y5Y6); assay: in vitro serine protease inhibition profile: matriptase; assay type: biochemical
T1 sequence (Q9Y5Y6 1-855): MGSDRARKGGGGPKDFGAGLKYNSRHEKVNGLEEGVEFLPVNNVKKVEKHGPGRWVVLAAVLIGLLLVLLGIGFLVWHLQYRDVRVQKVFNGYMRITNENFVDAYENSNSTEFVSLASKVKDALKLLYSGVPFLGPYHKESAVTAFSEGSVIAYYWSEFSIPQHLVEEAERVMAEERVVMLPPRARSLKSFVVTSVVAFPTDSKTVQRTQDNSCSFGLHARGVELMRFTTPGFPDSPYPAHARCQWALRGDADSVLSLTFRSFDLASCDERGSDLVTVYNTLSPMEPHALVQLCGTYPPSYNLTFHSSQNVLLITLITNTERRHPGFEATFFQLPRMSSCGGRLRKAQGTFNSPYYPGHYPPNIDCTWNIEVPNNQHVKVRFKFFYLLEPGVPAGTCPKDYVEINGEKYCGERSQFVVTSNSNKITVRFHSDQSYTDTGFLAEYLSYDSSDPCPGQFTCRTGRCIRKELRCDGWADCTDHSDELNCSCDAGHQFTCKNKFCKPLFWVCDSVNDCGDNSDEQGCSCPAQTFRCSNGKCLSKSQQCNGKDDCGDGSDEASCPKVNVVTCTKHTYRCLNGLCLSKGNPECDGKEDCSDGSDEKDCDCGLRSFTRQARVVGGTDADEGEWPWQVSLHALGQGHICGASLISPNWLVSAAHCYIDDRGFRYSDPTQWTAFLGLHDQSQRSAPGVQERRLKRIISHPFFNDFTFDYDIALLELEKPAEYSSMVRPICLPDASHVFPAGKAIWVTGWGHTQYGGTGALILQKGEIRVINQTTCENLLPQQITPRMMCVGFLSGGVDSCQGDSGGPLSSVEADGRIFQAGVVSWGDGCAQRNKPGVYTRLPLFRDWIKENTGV

KLK4 = KLK4 (Homo sapiens, UniProt Q9Y5K2); assay: in vitro serine protease inhibition profile: KLK4; assay type: biochemical
FXIIa = target: T2, FXIIa (Homo sapiens, UniProt P00748); assay: in vitro serine protease inhibition profile: FXIIa; assay type: biochemical
T2 construct: panel of serine proteases: uPA, tPA, thrombin, plasmin, FXIIa

ocular tissue damage = assay: rat dry eye model, ocular surface damage by fluorescein staining; assay type: in vivo; conditions: dry eye rats
Procedure: (§1) Female Wistar rats (200-300 g, Janvier, Roubaix, France) were kept under standard pathogen-free conditions. Husbandry conditions: room temperature 20-25° C., humidity 50-60% and a day-night cycle of 12 h light/12 h dark. Food and water were available ad libitum. All in vivo manipulations were approved by the Animal Ethical Committee of the University of Antwerp (2013-67) and are in accordance to the ARRIVE guidelines for the use of animals in ophthalmic and vision research.
To remove the exorbital lacrimal gland, animals were anesthetized with an intraperitoneal injection of 25 mg/kg ketamine (Anesketin®, Eurovet, Bladel, Netherlands) and 2.5 mg/kg xylazine (Rompun®, Bayer, Leverkusen, Germany). Routine manipulations (tear collection, fluorescein staining) were performed after induction with 5% isoflurane (Halocarbon®, New Jersey, USA), followed by a maintenance dosage of 1.5%.
(§2) To remove the gland, a small incision was made beneath the right ear. The lacrimal glands of the left eye were kept intact, leaving each animal with its own individual control and eliminating the need for extra control groups. Progression of dry eye was monitored for 24 days and tear volume measurements and fluorescein staining were performed once a week. Tears were collected twice a week.
Sodium-fluorescein (1%, Sigma-Aldrich, Seelze, Germany) in phosphate buffered saline (PBS, Gibco® by LifeTechnologies Europe, Gent, Belgium) was administered topically to the surface of the eye. To avoid false positives, eyes were rinsed after one minute with PBS and excess fluorescein was removed by placing filter paper in the lateral cantus of the eye. The eye was photographed with a microscopic lens (Photo adapter 1.0 MC 80 DX-Axiovert 25 CA, Carl Zeiss AB, Gottingen, Germany) in a darkened room under cobalt blue light. Using the Oxford fluorescein grading scale, scores from 0 to 5 were given to each eye, depending on ocular staining intensity. Semi-quantitative scoring was done in a blind manner by three independent observers. Evaluation of ocular surface damage was performed every week.
(§3) Tear fluid was obtained twice a week. Tear volume and tissue damage was evaluated once a week. Animals were treated with Restasis® (2×/day), UAMC50, UAMC1162, UAMC1169/vehicle (2×/day) for 3 consecutive weeks. Compounds 1, 2 and 4 were formulated as follows: […]

[1] = rat dry eye model, aqueous tear production (phenol red thread); assay type: in vivo; conditions: dry eye rats, 2 concentrations
Procedure: as §1, §2
A phenol red thread (Zone Quick®, Menicon Co. Ltd, Nagoya, Japan) was placed in the lateral cantus of the conjunctival fornix for 15 seconds. […] Tear fluid volumes were measured once a week.
as §3

[2] = tested on: TNF-α and IL-1α in tear fluid; assay: rat dry eye model, pro-inflammatory cytokines in tear fluid; assay type: in vivo; conditions: dry eye rats
Procedure: as §1, §2
Tear fluid was collected once a week with 10 μl capillaries (Blaubrand® Intramark, Wertheim, Germany) connected with a flexible tube to a syringe. […]
TNF-α and IL-1α concentrations in tear fluid were measured flow cytometrically (FACS calibur, BD Biosciences), using Cytometric Bead Array (CBA) according to the manufacturers protocol (Rat IL-1α and TNF-α CBA flex sets, BD Biosciences, Erembodegem Belgium.
Tear fluid was obtained twice a week. Tear volume and tissue damage was evaluated once a week. […]

[3] = 5 mM formulation, 2x/day, FIG. 4

T2 sequence (P00748 373-615 limits assumed, other chains not shown): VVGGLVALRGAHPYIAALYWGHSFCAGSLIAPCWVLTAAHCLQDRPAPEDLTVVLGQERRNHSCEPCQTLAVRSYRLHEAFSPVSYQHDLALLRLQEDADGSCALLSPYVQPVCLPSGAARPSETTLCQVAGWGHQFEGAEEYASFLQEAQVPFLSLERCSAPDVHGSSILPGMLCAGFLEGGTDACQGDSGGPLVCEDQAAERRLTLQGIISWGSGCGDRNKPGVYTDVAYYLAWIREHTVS
Sequence of KLK4 (Q9Y5K2 31-254, species assumed): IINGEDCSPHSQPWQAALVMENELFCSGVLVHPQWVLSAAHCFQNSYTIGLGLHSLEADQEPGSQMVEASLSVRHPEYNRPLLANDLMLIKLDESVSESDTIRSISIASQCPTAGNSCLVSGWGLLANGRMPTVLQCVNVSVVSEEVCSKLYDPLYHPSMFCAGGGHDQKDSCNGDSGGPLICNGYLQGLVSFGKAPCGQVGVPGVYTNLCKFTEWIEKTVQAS

SMILES | IC50 (matriptase) | IC50 (KLK4) | IC50 (FXIIa) | effect on ocular tissue damage (ocular tissue damage; [3]) | effect on tear volume [1] | anti-inflammatory effect on IL-1α and TNF-α in tear fluid ([2]; 5 mM) | anti-inflammatory effect on IL-1α and TNF-α in tear fluid ([2]; two concentrations, compared with Restasis, FIGS. 6 and 7) | tissue damage scores (ocular tissue damage; follow-up experiments, 5 mM and 500 μM, vs untreated, vehicle, Restasis, FIG. 5) | effect on ocular tissue damage (ocular tissue damage; lower dose (500 μM), day 21)
COC(=O)NC(Cc1ccc(NC(=N)N)cc1)P(=O)(Oc1ccccc1)Oc1ccccc1 (stereo not shown) [Compound 1] | 82 nM | 9 nM | > 2500 nM | no effect |  |  |  |  | 
CC(=O)Nc1ccc(OP(=O)(Oc2ccc(NC(C)=O)cc2)C(Cc2ccc(NC(=N)N)cc2)NC(=O)OCc2ccccc2)cc1 (stereo not shown) [Compound 4] | 3 nM | 2 nM | 1610 nM | superior effect on ocular tissue damage | no significant effects have been observed on tear volume | significant anti-inflammatory effect | overall stronger anti-inflammatory effect and faster onset of action effect than Restasis© | lower tissue damage scores | failed to provide an effect on day 21
